Results as given in PMC8583042, “New Hybrid Compounds Combining Fragments of Usnic Acid and Thioether Are Inhibitors of Human Enzymes TDP1, TDP2 and PARP1” (International Journal of Molecular Sciences, 2021).

Legend:
[1] = EZ4U colorimetric cytotoxicity test, HEK293A; type: cell-based; conditions: human
Text: (§1) The low intrinsic cytotoxicity of the additional drug component in the clinically used anticancer cocktails with traditional drugs is very important for treatment. This approach in chemotherapy can reduce the potential resulting toxic load on the body in the case of a combined action of these inhibitors on the activity of several targets. […] The effects of the tested compounds on cell survival are shown on Figure 4 and the CC50 values for three cell lines are shown in Table 1. The intrinsic cytotoxicity of a number of the studied compounds is quite high, namely, they have close IC50 values against the TDP1 and CC50 values on one or several studied cell lines. Most of the compounds generally were more toxic for the HEK293FT and HeLa cell lines than for the HEK293A cell line (Table 1 and Figure 4). The cytotoxicity of the three leader compounds, 7g, 10a, and 7h, was quite high. […] Compound 10b was one of the least toxic among the ten tested compounds.
(§2) Cytotoxicity of the compounds was examined against human cell lines HEK293A (human embryonic kidney)—WT, TDP1 deficient (Tdp1-/-), PARP1 deficient (PARP1-/-), and HeLa (cervical cancer) using an EZ4U colorimetric test (Biomedica, Vienna, Austria). The HEK293A cell line was obtained from Thermo Fisher Scientific (Waltham, MA, USA), and the HeLa cell line was obtained from the Russian Cell Culture Collection (RCCC) Institute of Cytology RAS, St. Petersburg, Russia. The cells were grown in DMEM/F12 medium (Gibco, Thermo Fisher Scientific, Waltham, MA, USA), with 1x GlutaMAX (Gibco, Thermo Fisher Scientific, Waltham, MA, USA), 50 IU/mL penicillin, 50 μg/mL streptomycin (MP Biomedicals), and in the presence of 10% fetal bovine serum (Biolot, Saint-Petersburg, Russia) in a 5% CO2 atmosphere. Cells were grown in the presence of 1% DMSO in the control wells. After the formation of a 30–50% monolayer, the tested compounds were added to the medium, and the cell culture was monitored for 3 days. The values were normalized to their own control in each case. At least three independent experiments were carried out. The 50% cytotoxic concentration (CC50) was defined as the compound concentration that reduced the cell viability by 50% when compared to the untreated controls. The compound concentration that caused 50% cell growth inhibition was determined using OriginPro 8.6.0 software (OriginLab, Northampton, MA, USA). The measurements were carried out in three independent experiments.

HeLa cells [2] = test: EZ4U colorimetric cytotoxicity test, HeLa; type: cell-based, human; conditions: Homo sapiens; HeLa, only Tpc
Text: as §1, §2

HeLa cells [3] = test: Cytotoxicity of the combination of 10a and topotecan on HeLa cells; type: cell-based, human; conditions: Homo sapiens; HeLa, Tpc titrated with fixed 5 μM 10a; read-out: CC50 of Tpc with 10a
Text: TDP1 is able to cleave the TOP1–DNA complex, thus preventing the action of Tpc and decreasing the efficiency of this clinically used drug. The inhibition of TDP1 activity can increase the efficiency of Tpc. Next, we checked the cytotoxic effect of the combination of Tpc and examined the TDP1 inhibitors compared to Tpc alone on HeLa cells and HEK293 cells.
We observed the suppressed cell growth in the joint presence of the TDP1 inhibitor and Tpc on HeLa cells compared to Tpc alone (Figure 5). We observed the synergistic effect both when we titrated 10a with addition of fixed Tpc (1 μM or 2 μM) and vice versa when we titrated Tpc with addition of fixed 10a (5 μM). […] The CC50 value of Tpc decreased from 2 μM (only Tpc) to 0.7 μM (Tpc with 5 μM 10a).
as §2, with “The 50% cytotoxic concentration (CC50) was defined as the compound concentration that reduced the cell viability by 50% when compared to the untreated controls.” left out, “The measurements were carried out in three independent experiments.” left out

[4] = Colorimetric cytotoxicity test, HEK293A PARP1-/-; type: cell-based; conditions: human, PARP1-/- HEK293A cells; PARP1-/- HEK293A cell line; read-out: CC50 of Tpc
Text: In our previous works, we checked the cytotoxic effect of Tpc and the TDP1 inhibitors—monoterpene 3-carene-derived compounds [48, 49] and UA combined with monoterpenoids, measured separately and jointly with Tpc—using a panel of HEK293FT and HEK293A Tdp1 knockout isogenic clones. […] The data on the HEK293FT mutants were of low reproducibility, which is why we decided to change the basic cell line to HEK293A [49]. In this work, we created new PARP1-/- HEK293A cells using the CRISPR–Cas9 approach (Figure S27). […] We checked the intrinsic cytotoxicity of the leader compound (10a) on the HEK293 wild type and TDP1-/- and PARP1-/- cell lines using a colorimetric test (Figure 6). […] There was no difference between the WT and mutant cells.
Cytotoxicity of the compounds was examined against human cell lines HEK293A (human embryonic kidney)—WT, TDP1 deficient (Tdp1-/-), PARP1 deficient (PARP1-/-), and HeLa (cervical cancer) using an EZ4U colorimetric test (Biomedica, Vienna, Austria). […] After the formation of a 30–50% monolayer, the tested compounds were added to the medium, and the cell culture was monitored for 3 days. […] The compound concentration that caused 50% cell growth inhibition was determined using OriginPro 8.6.0 software (OriginLab, Northampton, MA, USA). […]

TDP1 = target: T1, TDP1 (Homo sapiens, UniProt Q9NUW8); test: Real-time fluorescence assay of TDP1 activity; type: biochemical; conditions: real-time fluorescent assay, 1.5 nM TDP1, 50 nM oligonucleotide; read-out: IC50 (TDP1)
T1 construct: made in house; host or cells: E. coli
Text: We tested UA and all 14 newly synthesized UA derivatives for their TDP1 inhibitory properties by measuring their IC50 values using a real-time fluorescent assay. […] Compounds 10a,b are sulfoxide analogs of 7g,h.
(§3) Human recombinant tyrosyl-DNA phosphodiesterase 1 (TDP1) and human recombinant poly(ADP-ribose)-polymerase1 (PARP1) were expressed in the E. coli system and purified as described.
The biosensor (5′-[FAM] AAC GTC AGGGTC TTC C [BHQ]-3′) was synthesized in the Laboratory of Nucleic Acid Chemistry at the Institute of Chemical Biology and Fundamental Medicine (Novosibirsk, Russia) and was used for TDP1 enzyme activity real-time fluorescence detection. The reaction mixture (200 μL) contained a TDP1 reaction buffer (50 mM Tris-HCl, pH 8.0, 50 mM NaCl, and 7 mM β-mercaptoethanol), 50 nM oligonucleotide, varied concentrations of the tested compounds, and purified TDP1 in a final concentration 1.5 nM. The reaction mixtures were incubated at a constant temperature of 26 °C in a POLARstar OPTIMA fluorimeter (BMG LABTECH, GmbH, Ortenberg, Germany). Fluorescence intensity was measured (Ex485/Em520 nm) every 1 min for 10 min. The average values of the half maximal inhibitory concentration (IC50) were determined using an eleven-point concentration response curve and calculated using MARS Data Analysis 2.0 (BMG LABTECH). The 50% inhibitory concentration (IC50) was defined as the concentration of the compound that inhibited 50% of the enzyme activity when compared to the untreated controls. At least three independent experiments were carried out to obtain the IC50 values. To determine the kinetic parameters of the TDP1 enzymatic reaction, the apparent maximum rate of enzymatic reaction (Vmax), Michaelis constant (KM), possible inhibition mechanism, and steady-state kinetic experiments were carried out at 5 fixed concentrations of the substrate, with variation in the inhibitor concentrations. The standard reaction mixtures (200 μL) contained reaction buffer components; 50 nM, 100 nM, 200 nM, 500 nM, or 1000 nM substrate; an inhibitor; and 1.5 nM recombinant human TDP1. The initial kinetic curves were obtained in three independent experiments and statistically processed in OriginPro 8.6.0 (OriginLab, Northampton, MA, USA).

[5] = Colorimetric cytotoxicity test, HEK293FT; type: cell-based; conditions: human, HEK293FT cells, intrinsic cytotoxicity
Text: as §1, §2

[6] = EZ4U colorimetric cytotoxicity test, HeLa; type: cell-based, human; conditions: human, HeLa cells; intrinsic cytotoxicity, compound alone, 3 days
Text: as §1, §2

PARP1 = target: T2, PARP1 (Homo sapiens, UniProt P09874); test: PARP1 autopoly(ADP-ribosyl)ation assay with [32P]-NAD+; type: biochemical; conditions: 0.5 mM concentration of the compound; read-out: PARP1 residual activity
T2 construct: made in house; host or cells: E. coli
Procedure: The next step of our study was to test the inhibitors for their ability to inhibit PARP1 and PARP2. UA and the 14 synthesized compounds were tested for the suppression of the ability of PARP1 and PARP2 to include a radioactive label into the acid-insoluble reaction product, poly(ADP-ribose) (PAR). […] The best effect we observed was for 9; the residual activity was 40 ± 5% under the reaction conditions (0.5 mM concentration of the compound), indicated in Materials and Methods.
as §3
The radioactive labeled [32P]-NAD+ was synthesized from α–[32P]-ATP according to [55]. The reaction of autopoly(ADP-ribosyl)ation was carried out as follows: for PARP1, 50 mM Tris-HCl, pH 8.0, 10 mM MgCl2, 150 mM NaCl, and 7 mM β-mercaptoethanol, as well as activated DNA 2 oe/mL, 0.3 mM [^32P]-NAD+ at 37 °C. The reaction was initiated by adding PARP1 to 200 nM and the reaction mixtures were incubated for 2 min. For PARP2: 50 mM Tris-HCl, pH 8.0, 3 mM spermin, 150 mM NaCl, and 7 mM β-mercaptoethanol, as well as activated DNA 2 oe/mL, 0.6 mM [^32P] NAD+ at 37 °C. […] The incorporation of radioactivity into the product was calculated using a Typhoon FLA 9500 scanner (GE Healthcare, Chicago, IL, USA). […]

T2 sequence (P09874 whole entry): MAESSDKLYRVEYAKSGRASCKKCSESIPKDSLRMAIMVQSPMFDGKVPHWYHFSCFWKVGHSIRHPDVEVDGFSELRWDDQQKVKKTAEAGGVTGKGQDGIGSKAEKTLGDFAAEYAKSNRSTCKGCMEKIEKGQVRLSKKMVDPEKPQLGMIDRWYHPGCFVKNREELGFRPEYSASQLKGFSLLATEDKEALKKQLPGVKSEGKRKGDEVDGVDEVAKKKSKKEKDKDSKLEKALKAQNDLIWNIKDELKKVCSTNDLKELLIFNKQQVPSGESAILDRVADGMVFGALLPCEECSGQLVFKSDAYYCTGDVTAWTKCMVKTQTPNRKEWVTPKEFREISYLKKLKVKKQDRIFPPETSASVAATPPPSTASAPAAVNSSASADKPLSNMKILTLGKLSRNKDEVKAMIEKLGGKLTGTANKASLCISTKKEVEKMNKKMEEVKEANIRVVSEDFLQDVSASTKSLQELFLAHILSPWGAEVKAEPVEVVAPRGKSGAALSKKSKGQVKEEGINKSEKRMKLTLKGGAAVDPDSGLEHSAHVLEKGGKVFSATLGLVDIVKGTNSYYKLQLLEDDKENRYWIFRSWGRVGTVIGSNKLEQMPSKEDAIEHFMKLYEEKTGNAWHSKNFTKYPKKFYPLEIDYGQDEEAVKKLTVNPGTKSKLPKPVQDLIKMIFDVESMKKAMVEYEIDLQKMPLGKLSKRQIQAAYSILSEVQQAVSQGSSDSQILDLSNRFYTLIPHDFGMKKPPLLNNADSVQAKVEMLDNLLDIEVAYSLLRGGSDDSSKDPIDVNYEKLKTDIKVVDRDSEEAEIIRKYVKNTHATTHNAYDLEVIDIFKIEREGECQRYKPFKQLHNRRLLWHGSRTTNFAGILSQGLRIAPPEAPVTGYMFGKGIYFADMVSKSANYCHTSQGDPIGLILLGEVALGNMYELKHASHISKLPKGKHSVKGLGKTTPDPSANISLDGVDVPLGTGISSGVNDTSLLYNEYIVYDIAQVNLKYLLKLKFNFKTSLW
T1 sequence (Q9NUW8 whole entry): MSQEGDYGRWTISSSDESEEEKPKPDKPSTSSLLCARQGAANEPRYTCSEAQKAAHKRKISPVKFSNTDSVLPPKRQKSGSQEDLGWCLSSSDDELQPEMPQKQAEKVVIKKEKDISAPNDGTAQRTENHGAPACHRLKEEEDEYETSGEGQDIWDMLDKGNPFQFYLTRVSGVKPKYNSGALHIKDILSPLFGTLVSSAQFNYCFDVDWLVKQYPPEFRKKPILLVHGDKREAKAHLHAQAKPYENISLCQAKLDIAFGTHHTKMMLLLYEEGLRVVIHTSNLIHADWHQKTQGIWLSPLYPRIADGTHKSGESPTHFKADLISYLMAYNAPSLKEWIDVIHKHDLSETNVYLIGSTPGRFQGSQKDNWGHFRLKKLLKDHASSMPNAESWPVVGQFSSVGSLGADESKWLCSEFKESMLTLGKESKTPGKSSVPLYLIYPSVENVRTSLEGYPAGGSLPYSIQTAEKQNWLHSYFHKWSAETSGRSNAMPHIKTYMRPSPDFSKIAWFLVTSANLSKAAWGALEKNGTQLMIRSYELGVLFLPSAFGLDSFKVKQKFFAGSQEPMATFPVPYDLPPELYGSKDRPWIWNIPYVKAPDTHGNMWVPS

Row | Structure (SMILES) | CC50 at 3 days ([1]; wild-type HEK293A cells, WT HEK293A cells, read-out: CC50 of Tpc) | CC50 (HeLa cells [2]) | CC50 (HeLa cells [3]) | CC50 at 3 days [4] | IC50 (TDP1) | CC50 at 3 days ([1]; HEK293A cells, intrinsic cytotoxicity, 3 days, read-out: HEK293A CC50) | CC50 at 3 days [5] | CC50 at 3 days [6] | remaining activity at 500 µM (PARP1)
1 | CC[C@@]1(O)C(=O)OCc2c1cc1n(c2=O)Cc2cc3c(CN(C)C)c(O)ccc3nc2-1 [Tpc, topotecan, reference compound] | 27 ± 4 nM | 2000 nM | 700 nM | 50 ± 5 nM | – | – | – | – | –
2 | CC(=O)C1=C(O)C=C2Oc3c(C(=O)CSC(N)=O)c(O)c(C)c(O)c3[C@@]2(C)C1=O [compound 9, (2R)-4-acetyl-10-[2-(carbamoylsulfanyl)acetyl]-5,11,13-trihydroxy-2,12-dimethyl-8-oxatricyclo[7.4.0.0^2,7]trideca-1(13),4,6,9,11-pentaen-3-one] | – | – | – | – | 6600 ± 1000 nM | > 50000 nM | 7000 ± 2000 nM | 13000 ± 1000 nM | 40 ± 5%
